Measured values reported in patent US20100160391A1, “Substituted Aminopyridines as Fluorescent Reporters for Amide Hydrolases” (priority 2006, published 2010).

Key:
[1] = test system: amidases, human liver microsomes; experiment: Specific activity, human liver microsomes; format: biochemical; details: pH 8.0, 37° C.; NM = not measurable at the same protein concentration as other substrates
Procedure: Comparison of the lowest detection limits of protein concentration of FAAH toward colorimetric and fluorescent substrates. In general, all assays were performed in 96-well styrene flat-bottom microtiter plates with a Spectra Max M2 spectrophotometer at 37° C. for […]. The total volume of each well was 201 μl consisting of 0.1 M sodium phosphate buffer (pH 8.0) (190 μl) containing 1% glycerol and 0.1% Triton-X 100, stock or diluted protein solution (10 μl), and the substrate solution (1 μl) in ethanol (final concentration 200 μM for 10, 11, 13 or 14) or in DMSO (final concentration 25 μM for 12, 15, or 16; 50 μM for 17). The lowest detection limits of microsomal fatty acid amide hydrolase (FAAH) by substrates were determined by the fact that the signal at 10 min after kinetic measurements are equal to or over three times the noise or basal line at 0 min. Colorimetric substrate (16) assays were performed in clear 96-well microtititer plates using an absorbance wavelength at 382 nm. The fluorescent substrates containing 5-amino-2-methoxypyridine (e.g., 10, 13) were measured at an excitation wavelength (302 nm), emission wavelength (396 nm), and auto cutoff wavelength (325 nm). Similarly, the fluorescent substrates containing 5-amino-2-methoxy-6-methylpyridine (e.g., 11, 14, and 17) were measured at an excitation wavelength (304 nm), emission wavelength (392 nm), and an auto cutoff wavelength of 325 nm. In addition, an excitation wavelength (366 nm), emission wavelength (496 nm), and auto cutoff wavelength (495 nm) were used for the substrates (e.g., 12 and 15) containing 7-amino-4-trifluoromethyl coumarin.
Specific activity determination. The assays for specific activities were performed as described above for the sensitivity assay. The specific activity presented is based on the following: 1) the signal after a 10 min enzymatic reaction was at least 3 fold the baseline signal at 0 min, and 2) the amount of hydrolyzed substrate during a 10 min period was less than 10% of the total amount of the substrate added. To correct for protein-induced fluorescence quenching, a standard curve of 5-amino-2-methoxypyridine (6) or 5-amino-2-methoxy-6-methylpyridine (8) was constructed in the presence of the same protein concentration used for the assay of that enzyme.

[2] = target: T1, fatty acid amide hydrolase (FAAH) (Homo sapiens, UniProt O00519); experiment: Kinetic study of FAAH toward substrates; format: biochemical
T1 construct: made in house; host or cells: Trichoplusia ni High Five cells infected with recombinant baculovirus Ac-hFAAH; microsomal fraction
T1 sequence (O00519 1-579): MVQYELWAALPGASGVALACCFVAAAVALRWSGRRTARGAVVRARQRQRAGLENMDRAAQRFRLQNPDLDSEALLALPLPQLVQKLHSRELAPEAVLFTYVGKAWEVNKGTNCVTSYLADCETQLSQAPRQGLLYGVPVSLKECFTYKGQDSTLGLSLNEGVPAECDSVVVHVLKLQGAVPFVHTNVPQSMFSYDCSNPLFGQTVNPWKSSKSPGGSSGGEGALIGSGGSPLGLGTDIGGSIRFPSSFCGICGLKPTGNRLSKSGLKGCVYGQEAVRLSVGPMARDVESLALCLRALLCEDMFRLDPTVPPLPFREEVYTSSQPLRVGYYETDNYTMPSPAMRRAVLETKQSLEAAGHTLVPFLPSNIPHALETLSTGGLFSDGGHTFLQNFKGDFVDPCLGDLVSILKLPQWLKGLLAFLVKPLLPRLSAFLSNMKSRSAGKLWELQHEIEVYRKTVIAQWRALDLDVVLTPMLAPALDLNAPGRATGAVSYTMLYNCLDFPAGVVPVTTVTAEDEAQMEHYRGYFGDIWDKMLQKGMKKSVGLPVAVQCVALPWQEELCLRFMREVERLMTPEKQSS
Procedure: Preparation of recombinant human FAAH. Transgenic expression of the human FAAH in a baculovirus system was performed by following the method described in Nishi et al., Arch. Biochem. Biophys., 445:115-123 (2006). The cDNA encoding human FAAH (GenBank Accession No. NM_001441) was amplified by PCR using a human liver cDNA library (Invitrogen; Carlsbad, Calif.) as a template. The primer pair was 5′-[…]-3′ and 5′-[…]-3′. BglII and EcoRI endonuclease sites (underlined) were incorporated just upstream of the start codon and downstream of the stop codon of the coding sequence of FAAH, respectively. The PCR products were cloned into a pCR2.1 vector (Invitrogen) and the nucleotide sequence was verified by DNA sequencing. The cDNA fragments were then excised and directionally ligated to the BglII and EcoRI sites of the baculovirus transfer vector pAcUW21 (Lopez-Ferber et al., Baculovirus transfer vectors, in “Baculovirus Expression Protocols,” Richardson (Ed.), pp 25-63, Humana Press, Totowa, N.J., 1995). Recombinant baculoviruses harboring the human FAAH gene, Ac-hFAAH, were generated by co-transfection of Spodoptera frugiperda-derived Sf21 cells with the recombinant transfer vector plasmid and Bsu36I-cleaved BacPAK6 viral DNA (Clontech Laboratories; Mountain View, Calif.) as described in O'Reilly et al., Baculovirus Expression Vectors: A Laboratory Manual, Oxford University Press, New York, 1992. Trichoplusia ni-derived High Five cells (1×10^6 cells/ml) were inoculated with a high titer of Ac-hFAAH. At 72 hours post-infection, the infected cells were harvested by centrifugation at 2,000×g for 20 min at 4° C. and suspended in 50 mM Tris-HCl (pH 8.0) containing 150 mM NaCl, 1 mM EDTA, 1 μM pepstatin, 100 μM leupeptin, and 0.1 mg/ml aprotinin. The cell suspension was then homogenized using a Polytron homogenizer and centrifuged at 10,000×g for 20 min at 4° C. The microsomal fraction was collected by ultracentrifugation of the supernatant at 100,000×g for 60 min at 4° C. The pellet was resuspended in 20 mM Tris-HCl (pH 8.0) containing 10% (w/v) glycerol and 1% (w/v) Triton-X 100 and stored at −80° C. until use.
Kinetic study. The kinetic assays were also performed as described above for the sensitivity assay. Briefly, a total volume of 201 μl contained 0.1 M sodium phosphate buffer (pH 8.0) (190 μl) with 1% glycerol and 0.1% Triton-X 100, protein solution (10 μl), and substrate solution (1 μl). The protein content was 0.67 μg per well (201 μl). The concentration of substrate (13) in DMSO was 200, 100, 50, 25, 12.5, 6.25, 3.13, 1.56, or 0.78 μM. Similarly, the concentration of substrate (17) in DMSO was 100, 50, 25, 12.5, 6.25, 3.13, 1.56, 0.78, or 0.39 μM. Four replicates were applied for each concentration. Reported kinetic data (km and Vmax) were analyzed by the SigmaPlot Enzyme Kinetics software (2001) using the Michaelis-Menten equation for all concentrations.

[3] = pH 8.0, 37° C., 0.67 μg protein per well, Michaelis-Menten

CCCCCCCC(=O)Nc1ccc(OC)nc1 [Compound 13, N-(6-methoxypyridin-3-yl) octanamide]
Specific activity, Human liver microsomes [1]: 0.46 ± 0.06 nmol/min/mg protein
Selectivity ratio ([2]; Vmax/Km of substrate over that of oleamide (5.5 × 10^−2)): 74.5
Km [2, 3]: 74.9 µM
Vmax [2, 3]: 305 nmol/min/mg
difference in Vmax between (13) and (17) ([2]; saturating substrate concentration): 8 fold
